Source: ChEMBL document CHEMBL3507680, “University of Dundee, Gates Library screen for HepG2 cell viability”

Assay: Human HepG2 cell viability assay in 384 well format
Assay type: toxicity, cell-based
Design: dose 125 nL, time 70.5 hour; cytotoxicity at 70.5 h: concentration not given beside the values
Conditions: HepG2 cells, read-out: Inhibition

SMILES	cytotoxicity at 70.5 h [%]
CS(=O)(=O)Cc1cccc(CNS(=O)(=O)c2ccc(F)c(F)c2)c1	-8.75
CC(C)Cc1cc(CC2(NCc3ccccc3Cl)COC2)no1	4.27
Cc1ccccc1CS(=O)(=O)CC(=O)N(C)Cc1ccccc1	-9.59
O=C(NCCOc1ccccc1)Nc1cc(C(F)(F)F)c[nH]c1=O	-1.52
CC(C)C(C(=O)NC1CC1)n1cnc2cc(F)c(F)cc21 (centres undefined)	-0.654
O=C(c1cncs1)N1CCOC(c2cc(CCO)[nH]n2)C1 (centres undefined)	-7.42
CC(=O)N1CCC2(CC1)CC(NS(C)(=O)=O)c1ccccc1O2 (centres undefined)	-4.04
Cc1nc(C)n(CC2CCCN2CC(=O)N(C)Cc2ccc(C)o2)n1 (centres undefined)	-4.56
NC(=O)C1CN(c2ccc3cc(Br)ccc3n2)CCO1 (centres undefined)	-109
O=S(=O)(c1ccccc1)N1CCOCC(Cc2cccnc2)C1 (centres undefined)	-3.24
COc1cc(C(=O)NCCc2ccc(OC)c(OC)c2)on1	-2.98
CN(C)[C@@H]1CN(Cc2cnn(C)c2)[C@@H]2COC[C@H]12	7.8
CCN(CC)[C@H]1COC[C@@H]2CN(Cc3cnn(C)c3)C[C@@H]21	-3.13
CC(=O)N(Cc1noc(C2CC2)n1)C1CCN(CC2CCOCC2)C1 (centres undefined)	22.1
O=C(NCc1cccnc1)C1=NOC2(CCCN(CCO)C2)C1 (centres undefined)	-10.7
Cc1nn(-c2ncnc3[nH]cnc23)c2c1C(C(C)(C)C)CC(=O)N2 (centres undefined)	0.0512
CC(C)(C)OC(=O)N1CCC(NC2CCS(=O)(=O)C2)CC1 (centres undefined)	-8.07
O=C1CN(C(=O)c2cc(-c3ccco3)nc3c(Cl)cccc23)CCN1	9.84
CCOC(=O)CN(C)C1CCc2ccccc21 (centres undefined)	26.7
Cc1csc(CN(C)C(=O)Nc2cc(F)cc(N3CCCC3)c2)n1	-11.9
COCCCNC(=O)CN1CCOC(c2ccccc2)C1 (centres undefined)	15.8
CNC(=O)C1Cn2ccnc2C2(CCN(Cc3nccs3)CC2)O1 (centres undefined)	10.7
Cc1ccc(CS(=O)(=O)CC(=O)NCCCOC(C)C)cc1	-10.8

SMILES	cytotoxicity at 70.5 h [%]
COc1ccnc(N2CCN(C(=O)CCc3cnn(C)c3)CC2)n1	-11.9
CC(C)(C)c1nnc(CN2CCN(C(=O)CC3CCCCC3)CC2)o1	-2.8
CN1C[C@@H]2CC[C@H](CC1=O)N2C(=O)c1ccc(-c2ccccc2)[nH]c1=O	-8.24
COCCC(=O)N1CCC2(COCc3cnc(N(C)C)nc32)C1 (centres undefined)	-8.65
O=C1[C@H]2CN(C(=O)[C@H]3CCCO3)C[C@H]2CN1CC1CC1	-5.67
CCCS(=O)(=O)NCc1cccnc1Oc1ccc(C)nc1	-0.632
COCC(=O)N1CCc2ccc(=O)n(Cc3csc(C)n3)c2CC1	-6.47
CCc1ccc2c(C3CN(CC4CCC4)C3)ncn2c1	-6.64
Cc1cccc(CN2CCCn3c(nnc3Cn3cccn3)C2)n1	10.9
c1ccc(-c2noc(CN3CCC(c4ccn[nH]4)CC3)n2)cc1	-14.9
Cc1cc(CNc2ccc3nc(C4CC4)sc3c2)no1	-9.59
Cc1ncc(S(=O)(=O)N(CC(C)C)c2cccc(O)c2)s1	-1.45
N#Cc1cc(NS(=O)(=O)c2cc(C(=O)O)cc(Cl)c2Cl)ccc1F	0.738
CC(O)CC(C)(C)CNS(=O)(=O)c1cccc(Cl)c1C#N (centres undefined)	-10
CCNC(=O)NC(C)c1nc(-c2ccc(Br)cc2)no1 (centres undefined)	-8.74
N#Cc1cc2c(nc1SCc1cc(O)nc(O)n1)CCCC2	-7.89
O=C(CCc1cc2n(n1)CCCNC2)NCCS(=O)(=O)N1CCCC1	21.6
Cc1ccc(C)c(NC(=O)Nc2c[nH]c(=O)[nH]c2=O)c1	-27.8
CC(C)C1CN(C(=O)c2nccnc2N)CCS1 (centres undefined)	-4.8
O=C(c1ccnc(-n2cnnc2)c1)N1CCCC2(CCNC2)C1 (centres undefined)	-9.32
CN(Cc1nc(Cc2cccc(C(F)(F)F)c2)no1)C1CCOCC1	-5.63
Cc1cccnc1[C@H](C)Nc1nc(-c2cccnc2)nc2c1CNC2	-8.07
CC(C)c1nc(CN(C)C(=O)CNS(=O)(=O)c2cccs2)no1	46.6

SMILES	cytotoxicity at 70.5 h [%]
CC(CN1CCOCC1)NCc1nncn1C1CCCCC1 (centres undefined)	-3.01
CC[C@@H]1N(CC2CC2)CCC[C@]12CCC(=O)N2	-1.41
O=C1C(NCc2ccc3c(c2)CCO3)CCN1Cc1ccccc1 (centres undefined)	-14.7
CCc1csc(C2CCCN(C(=O)c3ccc(OC)nc3)C2)n1 (centres undefined)	-1.94
Cc1ccc(CCCC(=O)N2CCC(CS(N)(=O)=O)CC2)s1	-18.3
COc1cc(F)c(C(C)NC(=O)c2cccnc2C)cc1OC (centres undefined)	2.35
CNc1ccnc(N2CCC(c3nnc(CN4CCCC4)n3C)CC2)n1	13.4
Cc1cccc(C(=O)NCCNCC2CNc3ccnn3C2)c1 (centres undefined)	-1.43
O=C(c1ccc(Br)cc1F)N1CCc2ccncc21	3.99
Cc1noc(C)c1C(=O)NCc1ccc(N2CCOC(C)C2)nc1 (centres undefined)	4.56
Clc1cc(Cl)cc(CN2CCC(NCc3cc[nH]n3)CC2)c1	-4.79
Cc1ccc(CN2CCO[C@@H]3C[C@@H](C(=O)NC(C)C)C[C@H]32)o1	-8.04
Cc1cc(N(C)CC2COc3ccccc3O2)nc(N)n1 (centres undefined)	-5.43
Cc1n[nH]c(=O)c2c(NC(=O)CN3CCOCC3)oc(C)c12	-8.38
CS(=O)(=O)CCNC(=O)c1ccc(-c2ccco2)[nH]c1=O	1.54
CN(Cc1ccc2c(c1)OCO2)C(=O)c1ccc(C2CCCO2)s1 (centres undefined)	-6.85
O=C(CNC(=O)c1ccoc1)NCCOc1ccc2c(c1)CCC2	-6.52
O=C(c1nc2c(s1)CCCN2CC1CC1)N1CCCC1	-0.67
c1cc(-c2cnccn2)cc(-c2ccn(CCCN3CCCCC3)n2)c1	-7.3
Cc1cc(CN2C[C@H](OCC3CCOCC3)[C@H]3COC[C@H]32)oc1C	-0.082
Cc1ccc(NC(=O)Cn2cc(I)cn2)cc1C	20.3
N#CC1(NC(=O)c2c(F)ccc(OC(F)F)c2F)CCOCC1	-9.56
CCCc1ccc2oc(C(=O)N3CCCN(C)CC3)c(C)c2c1	-2.52

SMILES	cytotoxicity at 70.5 h [%]
Cc1ccc(C)c(CS(=O)(=O)CC(=O)Nc2ccc(F)cc2F)c1	-7.2
Cc1ccc(Oc2ncccc2CNC2CCCCC2)cn1	-5.62
O=C(c1ccc(S(=O)(=O)NCCc2ccncc2)cc1)N1CCCC1	-19.6
CNC(=O)C1CN(Cc2c[nH]cn2)CCN(C2CCOCC2)C1 (centres undefined)	14.9
CCC(CC)Cn1ncc(N2CCOCC2)cc1=O	-1.42
Cc1cccc(CNC(=O)Nc2ccn(CCCC(=O)N(C)C)n2)c1	-7.9
CCN(CC)C(=O)c1nc2c(s1)CCN(Cc1cccc(OC)c1)CC2	-11.2
COc1c(CNCc2nnc3n2CCCCC3)c(C(C)C)nn1C	-4.88
Cn1cc(C(=O)N2CC[C@@H]3[C@@H]2CCN3Cc2cccc(C#N)c2)cn1	0.809
CC(C)c1nc(CN(C)C(=O)CCc2ccc3c(c2)OCO3)cs1	-9.76
Cc1nnc(CSc2n[nH]c(-c3ccccn3)n2)o1	-7.45
CCN1CCc2[nH]cnc2C12CCN(c1ccc(Cl)cn1)CC2	-4.3
Cc1ccc(CCNc2nccc(-c3cc(C(=O)O)ccn3)n2)o1	-6.22
Cc1cc(C)c(CNC(=O)NCc2ccc(F)c(C)c2)c(=O)[nH]1	-0.902
COc1ccc(Cl)cc1CS(=O)(=O)Cc1nc(C2CC2)no1	-5.91
CCN(CC)C(=O)N1CCN(C(=O)C2CCCc3[nH]ncc32)CC1 (centres undefined)	-3.25
Cc1noc(C)c1CN1Cc2cnn(C)c2C(COCC2CC2)C1 (centres undefined)	-10.8
Cc1cnccc1NCCn1ccnc1C1CCCCC1	0.0765
CN(c1nccc(-c2cnc3sccn3c2=O)n1)C1CCCCC1	-3.44
CN(C)[C@@H]1CCN(C(=O)CC2CC2)[C@H]1Cc1cnn(C)c1	-7.51
Cc1cc(N2CCN(C(=O)CCc3scnc3C)CC2)nc(N)n1	18.7
CN1CCN(c2ccc(F)cc2NC(=O)NCC[S+](C)[O-])CC1 (centres undefined)	-2.15
Cc1ccncc1NC(=O)C1CSc2ncc(C)c(=O)n2C1 (centres undefined)	18.9

SMILES	cytotoxicity at 70.5 h [%]
COC(=O)c1ccnn1COc1ccc(Cl)cc1	28.1
Cn1nc(-c2cccc(Cl)c2)c(Br)c1C(=O)O	-16.9
COc1ccc(CC(C)(O)CNC(=O)Cc2ccc(F)cc2)cc1 (centres undefined)	-21
c1ccc(C(NCc2nnc(-c3ccco3)o2)C2CCC2)cc1 (centres undefined)	-14.7
CC(=O)c1cc2ncc(C(=O)NC3CCCCC3)cc2[nH]1	0.178
O=C(c1cccnc1)N1CCn2cc(CN3CCCC3)nc2C1	-6.71
Cc1c(C(=O)O)cnn1-c1ccc(-c2nc(C(C)C)no2)cn1	-15.1
Cc1nn(Cn2ccc(C(=O)N3CCCC3)n2)c(C)c1Cl	-9.33
CCc1nnc(CN(C)Cc2cccc(C(=O)Nc3nccs3)c2)o1	-1.25
Cc1cc(C(=O)N2CC(=O)Nc3cnccc32)c(Cl)cc1F	-1.87
Cc1ccc(-c2nnc(CN3CC[C@H](CO)[C@@H](O)C3)o2)n1C	-2.96
Cc1ccsc1CN(CCCN(C)C)Cc1ccccn1	-3.09
Fc1ccc(CN2CCC(c3noc(-c4cnccn4)n3)CC2)cc1F	-1.05
CC(C)c1ncc2c(n1)CN(CC(=O)Nc1ccc(Cl)cn1)CC2	-10.8
CCNC(=O)[C@@H]1C[C@H](N)CN1C(=O)CCc1ccccc1Cl	-4.67
FC1(F)CCNCC12CCN(c1cccnc1)C2 (centres undefined)	13.7
CCCN1CCC(N(Cc2ncc(C)o2)C(C)=O)C1 (centres undefined)	-8
OCc1ccc(CN(CCCn2ccnc2)Cc2ccncc2)o1	-4.15
Cc1nccn1CCCNC(=O)C1CCCCN1Cc1ccncc1 (centres undefined)	-2.44
CCc1nc(N2CCCC(O)(CO)CC2)ncc1C (centres undefined)	-0.208
Cc1ccccc1CCNC(=O)CN1CCCC(Cn2cncn2)C1 (centres undefined)	-3.82
Cc1cnn(C2CN(CC(=O)NCCc3cccs3)C2)c1	-12.3
